From PubChem BioAssay AID248 (DTP/NCI, 2004) come the findings set out here.

The test system of this assay is L1210 leukemia ip in BDF1 mice, survival T/C. The assay is described as follows: NCI In Vivo Anticancer Drug Screen. Data for tumor model L1210 Leukemia (intraperitoneal) in B6D2F1 (BDF1) mice. Particulars: endpoint: mean survival time, higher = longer survival. Summed up: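 In this screen, tumor-bearing mice given compound are compared to those given vehicle, and their survival values are reported as a treated-to-control quotient.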

[1] abbreviates: dose: 50.0 mg/kg/injection, schedule: Q01DX009 (ip), vehicle: saline with Tween-80.
Where [2] appears, read: dose: 100.0 mg/kg/injection, schedule: Q01DX009 (ip), vehicle: saline with Tween-80.
The mark [3] stands for this setting: dose: 100.0 mg/kg/injection, schedule: Q01DX009 (ip), vehicle: Klucel (hydroxypropylcellulose) (HPC).
Where [4] appears, read: dose: 100.0 mg/kg/injection, schedule: Q04DX003 (ip), vehicle: Klucel (hydroxypropylcellulose) (HPC).
The mark [5] stands for this setting: dose: 200.0 mg/kg/injection, schedule: Q01DX009 (ip), vehicle: Klucel (hydroxypropylcellulose) (HPC).
The mark [6] stands for this setting: dose: 200.0 mg/kg/injection, schedule: Q04DX003 (ip), vehicle: Klucel (hydroxypropylcellulose) (HPC).
The mark [7] stands for this setting: dose: 400.0 mg/kg/injection, schedule: Q01DX009 (ip), vehicle: Klucel (hydroxypropylcellulose) (HPC).
Setting [8] is: dose: 400.0 mg/kg/injection, schedule: Q04DX003 (ip), vehicle: Klucel (hydroxypropylcellulose) (HPC).
[9] abbreviates: dose: 100.0 mg/kg/injection, schedule: Q01DX001 (ip), vehicle: carboxymethylcellulose (CMC).
[10] abbreviates: dose: 200.0 mg/kg/injection, schedule: Q01DX001 (ip), vehicle: carboxymethylcellulose (CMC).
Setting [11] is: dose: 400.0 mg/kg/injection, schedule: Q01DX001 (ip), vehicle: carboxymethylcellulose (CMC).

Toxic doses and inconclusive results are not listed.

Consider `N=C(N)N/N=C(/c1ccccc1)c1ccc(Oc2ccc(/C(=N/NC(=N)N)c3ccccc3)cc2)cc1`, for which the T/C is, setting by setting: (dose: 60.0 mg/kg/injection, schedule: Q01DX Z (oral), vehicle: methylcellulose (MC)) 95 % of control; (dose: 240.0 mg/kg/injection, schedule: Q01DX Z (ip), vehicle: methylcellulose (MC)) 101 % of control; (dose: 240.0 mg/kg/injection, schedule: Q01DX Z (oral), vehicle: methylcellulose (MC)) 97 % of control; (dose: 360.0 mg/kg/injection, schedule: Q01DX Z (ip), vehicle: methylcellulose (MC)) 102 % of control; (dose: 480.0 mg/kg/injection, schedule: Q01DX Z (ip), vehicle: methylcellulose (MC)) 101 % of control; (dose: 480.0 mg/kg/injection, schedule: Q01DX Z (oral), vehicle: methylcellulose (MC)) 111 % of control.

`CC1=C(OCC(C)C)CCCC1=O`: the T/C is 88 % of control under setting [1]; 96 % of control under setting [2]; 96 % of control (dose: 200.0 mg/kg/injection, schedule: Q01DX009 (ip), vehicle: saline with Tween-80).

As to `CCOC(=O)NC(NC(=O)OCC)c1ccco1`, the T/C runs as follows: (dose: 100.0 mg/kg/injection, schedule: Q01DX001 (ip), vehicle: other) 98 % of control; (dose: 200.0 mg/kg/injection, schedule: Q01DX001 (ip), vehicle: other) 98 % of control; (dose: 400.0 mg/kg/injection, schedule: Q01DX001 (ip), vehicle: other) 89 % of control.

On to `COc1ccccc1/C=c1\[nH]c(=O)/c(=C/c2ccccc2OC)[nH]c1=O`, for which the T/C reads like this: under setting [3], 88 % of control; under setting [4], 101 % of control; under setting [5], 86 % of control; under setting [6], 101 % of control; under setting [7], 86 % of control; under setting [8], 98 % of control.

As to `C1=C(c2ccccc2)S/C(=C/c2ccccc2)S1`, the T/C by setting is: (dose: 25.0 mg/kg/injection, schedule: Q01DX009 (ip), vehicle: saline with Tween-80) 96 % of control; under setting [1], 96 % of control; (dose: 50.0 mg/kg/injection, schedule: Q04DX003 (ip), vehicle: saline) 88 % of control; (dose: 100.0 mg/kg/injection, schedule: Q01DX001 (ip), vehicle: saline) 93 % of control; under setting [2], 94 % of control; (dose: 100.0 mg/kg/injection, schedule: Q04DX003 (ip), vehicle: saline) 87 % of control. The T/C is 88 % of control (dose: 200.0 mg/kg/injection, schedule: Q01DX001 (ip), vehicle: saline) and 88 % of control (dose: 400.0 mg/kg/injection, schedule: Q01DX001 (ip), vehicle: saline).

As for `Cc1cc(OC(=O)Nc2ccc(Cl)c(Cl)c2)ccc1Cl`, the T/C under setting [3] is 102 % of control; the T/C under setting [4] is 96 % of control; the T/C under setting [5] is 98 % of control; the T/C under setting [6] was 104 % of control; the T/C under setting [7] is 95 % of control; the T/C under setting [8] is 101 % of control.

Turning to `CC/C(C)=C\CC/C(C)=C/COc1cccc(C(C)=O)c1`, the T/C is 94 % of control (dose: 75.0 mg/kg/injection, schedule: Q01DX009 (ip), vehicle: carboxymethylcellulose (CMC)); 90 % of control (dose: 150.0 mg/kg/injection, schedule: Q01DX009 (ip), vehicle: carboxymethylcellulose (CMC)); 92 % of control (dose: 300.0 mg/kg/injection, schedule: Q01DX009 (ip), vehicle: carboxymethylcellulose (CMC)).

Consider `Cc1ccc(N(CCO)CCO)cc1NC(=O)c1ccccc1`, for which the T/C runs as follows: under setting [9], 103 % of control; under setting [10], 101 % of control; under setting [11], 101 % of control.

For the molecule `Cc1cc(N(CCCl)CCCl)ccc1/C=N\Nc1nncn1N`, the T/C runs as follows: (dose: 25.0 mg/kg/injection, schedule: Q01DX009 (ip), vehicle: carboxymethylcellulose (CMC)) 122 % of control; under setting [9], 100 % of control; (dose: 100.0 mg/kg/injection, schedule: Q01DX009 (ip), vehicle: carboxymethylcellulose (CMC)) 154 % of control; under setting [10], 100 % of control; under setting [11], 102 % of control.

Take `O=C(Nc1ccc(Cl)cc1)Oc1c(Cl)cc(Cl)c(Cl)c1[N+](=O)[O-]`: the T/C is 94 % of control (dose: 100.0 mg/kg/injection, schedule: Q04DX002 (ip), vehicle: gum acacia) and 88 % of control (dose: 200.0 mg/kg/injection, schedule: Q04DX002 (ip), vehicle: gum acacia).

With `N#CCc1ccc2[nH]c3c(c2c1)CCCC3`, the T/C (dose: 100.0 mg/kg/injection, schedule: Q04DX002 (ip), vehicle: Klucel (hydroxypropylcellulose) (HPC)) is 106 % of control; the T/C (dose: 200.0 mg/kg/injection, schedule: Q04DX002 (ip), vehicle: Klucel (hydroxypropylcellulose) (HPC)) is 92 % of control; the T/C (dose: 400.0 mg/kg/injection, schedule: Q04DX002 (ip), vehicle: Klucel (hydroxypropylcellulose) (HPC)) is 92 % of control.

`C(=C/c1ccccc1)/C=N/Nc1ccccc1`: the T/C was 98 % of control under setting [4], 95 % of control under setting [6] and 92 % of control under setting [8].

As to `O=C(O)c1ccc(CCCCc2ccccc2)cc1`, the T/C reads like this: (dose: 25.0 mg/kg/injection, schedule: Q01DX001 (ip), vehicle: saline with Tween-80) 103 % of control; (dose: 50.0 mg/kg/injection, schedule: Q01DX001 (ip), vehicle: saline with Tween-80) 121 % of control; (dose: 100.0 mg/kg/injection, schedule: Q01DX001 (ip), vehicle: saline with Tween-80) 107 % of control.

In the case of `O=C(Nc1cccc(C2=NCCN2)c1)Nc1cc(C(=O)Nc2ccc(C3=NCCN3)cc2)ccc1C(=O)Nc1ccc(C2=NCCN2)cc1`, the T/C is, setting by setting: (dose: 1.88 mg/kg/injection, schedule: Q01DX Z (ip), vehicle: saline) 121 % of control; (dose: 3.75 mg/kg/injection, schedule: Q01DX Z (ip), vehicle: saline) 123 % of control; (dose: 3.75 mg/kg/injection, schedule: Q01DX Z (oral), vehicle: saline) 98 % of control; (dose: 7.5 mg/kg/injection, schedule: Q01DX Z (ip), vehicle: saline) 161 % of control; (dose: 7.5 mg/kg/injection, schedule: Q01DX Z (oral), vehicle: saline) 104 % of control; (dose: 15.0 mg/kg/injection, schedule: Q01DX Z (oral), vehicle: saline) 103 % of control. In addition, the T/C by setting is: (dose: 30.0 mg/kg/injection, schedule: Q01DX Z (oral), vehicle: saline) 101 % of control; (dose: 62.5 mg/kg/injection, schedule: Q01DX010 (oral), vehicle: saline) 101 % of control; (dose: 125.0 mg/kg/injection, schedule: Q01DX010 (oral), vehicle: saline) 108 % of control; (dose: 250.0 mg/kg/injection, schedule: Q01DX010 (oral), vehicle: saline) 105 % of control.

Take `Cc1ccc(NC(=O)Nc2cc(S(=O)(=O)O)ccc2Oc2ccccc2Cl)cc1`: the T/C reads like this: (dose: 100.0 mg/kg/injection, schedule: Q01DX009 (ip), vehicle: saline sonified) 95 % of control; (dose: 200.0 mg/kg/injection, schedule: Q01DX009 (ip), vehicle: saline sonified) 103 % of control.

`CCOC(=O)C(=Cc1ccccc1Cl)C(=O)OCC`: the T/C is, setting by setting: under setting [3], 88 % of control; under setting [4], 104 % of control; under setting [5], 99 % of control; under setting [6], 90 % of control.

`C/C(=N\N=C(N)N)c1cccs1`: the T/C runs as follows: (dose: 7.0 mg/kg/injection, schedule: Q01DX Z (oral), vehicle: carboxymethylcellulose (CMC)) 101 % of control; (dose: 15.0 mg/kg/injection, schedule: Q01DX Z (oral), vehicle: carboxymethylcellulose (CMC)) 91 % of control.

As to `CC(C)CC(NC(=O)CNC(=O)CNC(=O)OCc1ccccc1)C(=O)O` (configuration not stated), the T/C is 100 % of control (dose: 100.0 mg/kg/injection, schedule: Q04DX003 (ip), vehicle: saline with Tween-80); 103 % of control (dose: 200.0 mg/kg/injection, schedule: Q04DX003 (ip), vehicle: saline with Tween-80); 105 % of control (dose: 400.0 mg/kg/injection, schedule: Q04DX003 (ip), vehicle: saline with Tween-80).

On to `O=[N+]([O-])c1cc(S(=O)(=O)F)ccc1S`, for which the T/C runs as follows: under setting [4], 102 % of control; under setting [6], 100 % of control.
